Values quoted from earlier work in patent US20090252806A1, “NANOPARTICULATE TACROLIMUS FORMULATIONS” (Elan Pharma International Ltd., priority 2004, published 2009).
Where two headings read alike, the source gives them in different places.

Columns and labels:
[1] = U.S. study; average (range)
[2] = for reduction of mean AUC relative to the fasted condition / reduction of mean Cmax relative to the fasted condition: healthy volunteers (N=16)
[3] = 18 fasted healthy volunteers; single oral dose of 3 mg, 7 mg, and 10 mg
[4] = oral
[5] = 15 minutes after a high fat (400 kcal, 34% fat) breakfast, 11 liver transplant patients
[6] = administered 1.5 hours following the meal
[7] = given immediately following the meal

- ratio of whole blood concentration to plasma concentration [1]: 35 (range 12 to 67)
- decreased AUC as compared to a fasted state [2, 5]: 27±18%
- decreased Cmax as compared to a fasted state [2, 5]: 50±19%
- reduction of mean AUC relative to the fasted condition [2, 6]: 39%
- reduction of mean Cmax relative to the fasted condition [2, 6]: 63%
- reduction of mean AUC relative to the fasted condition [2, 7]: 39%
- reduction of mean Cmax relative to the fasted condition [2, 7]: 71%
- lengthening of Tmax ([2]; high-fat meal (848 kcal, 46% fat), 15 healthy volunteers): 5 fold
- solubility (in chloroform): very soluble
- solubility (in ethanol): freely soluble
- solubility (in methanol): very soluble
- solubility (in water): practically insoluble
- increase of Cmax and AUC with dose [3]: dose-proportional
- absolute bioavailability ([4]; adult kidney transplant patients (N=26)): 17±10%
- absolute bioavailability ([4]; adult liver transplant patients (N=17)): 22±6%
Structure (SMILES): C=CC[C@@H]1/C=C(\C)C[C@H](C)C[C@H](OC)[C@H]2O[C@@](O)(C(=O)C(=O)N3CCCC[C@H]3C(=O)O[C@H](/C(C)=C/[C@@H]3CC[C@@H](O)[C@H](OC)C3)[C@H](C)[C@@H](O)CC1=O)[C@H](C)C[C@@H]2OC [tacrolimus, Tacrolimus]
